Experimental data from patent publication US20060067916A1, “Sperm cell process system” (XY, Inc., priority 2002, published 2006).

Tested on: stallion sperm cells
Assay: Motility of Hoechst-stained stallion sperm diluted in KMT with or without stimulant (Example 5)
Assay type: cell-based
Parameters: Motility 3h: unit not given here
Settings: for Motility 3h / Progressive 3h: Motility Stimulants, 2 mM caffeine or 2.5 mM NaPyruvate in KMT; for Motility 3h with stimulant / Progressive 3h with stimulant: in % (unit assumed)
Procedure: Sperm cells in ejaculates from three stallions were initially evaluated for volume, concentration, and motility. The remaining portion of each ejaculate was extended in KMT to 25×10^6 sperm/mL and stored at RT for 18 hr. The stored ejaculates were pelleted by centrifugation at 600 g for 10 min. Pelleted sperm cells were resuspended in KMT with Hoechst to generate sperm samples of 400×10^6 sperm/mL,12.4 μl Hoechst, adjusted to either 7.1 pH or 7.9 pH, and then incubated at 34° C. for either 30 min or 60 min. Stained sperm cell samples were extended with either 1 mL KMT with 1.5 μl/mL 5% red food dye; 1 mL KMT with 2.0 μl/mL 5% red food dye; 1 mL KMT with 2.5 μl/mL 5% red food dye; or 1 mL KMT with 3.0 μl/mL […] red food dye. Sperm cell samples were then evaluated for % dead and resolution by flow cytometry analysis, and motility was evaluated by further diluting treated samples in either 140 μl KMT: 20 μl sperm cells; 140 μl KMT 2 mM caffeine: 20 μl sperm cells; 140 μl KMT, 2.5 mM NaPyruvate: 20 μl sperm cells.

[1] = stain time 30 min (12 samples only)
[2] = stain time 60 min (12 samples only)

Compound: Cn1c(=O)c2c(ncn2C)n(C)c1=O [Caffeine, caffeine]
- Motility 3h: 67.71
- Progressive 3h: 66.56
- Effect of stimulant on sperm cell motility (FIG. 5) (about 2 mM): stimulate motility
- Motility 3h with stimulant (food coloring 1.5 μl/mL): 66.67
- Progressive 3h with stimulant (food coloring 1.5 μl/mL): 65.42
- Motility 3h with stimulant (food coloring 2 μl/mL): 68.33
- Progressive 3h with stimulant (food coloring 2 μl/mL): 67.5
- Motility 3h with stimulant (food coloring 2.5 μl/mL): 68.75
- Progressive 3h with stimulant (food coloring 2.5 μl/mL): 67.92
- Motility 3h with stimulant (food coloring 3 μl/mL): 67.08
- Progressive 3h with stimulant (food coloring 3 μl/mL): 65.42
- Motility 3h with stimulant (pH 7.1, stain time 30 min): 66.67
- Progressive 3h with stimulant (pH 7.1, stain time 30 min): 65
- Motility 3h with stimulant (pH 7.1, stain time 60 min): 70
- Progressive 3h with stimulant (pH 7.1, stain time 60 min): 70
- Motility 3h with stimulant (pH 7.9, stain time 30 min): 66.67
- Progressive 3h with stimulant (pH 7.9, stain time 30 min): 65
- Motility 3h with stimulant (pH 7.9, stain time 60 min): 67.5
- Progressive 3h with stimulant (pH 7.9, stain time 60 min): 65.83
- Motility 3h with stimulant (stain pH 7.1): 68.54
- Progressive 3h with stimulant (stain pH 7.1): 67.5
- Motility 3h with stimulant (stain pH 7.9): 66.88
- Progressive 3h with stimulant (stain pH 7.9): 65.63
- Motility 3h with stimulant [1]: 66.67
- Progressive 3h with stimulant [1]: 65
- Motility 3h with stimulant [2]: 68.75
- Progressive 3h with stimulant [2]: 67.92
- Motility 3h with stimulant (stallion Gunsmoke): 66.25
- Progressive 3h with stimulant (stallion Gunsmoke): 63.13
- Motility 3h with stimulant (stallion Rowdy): 67.5
- Progressive 3h with stimulant (stallion Rowdy): 67.5
- Motility 3h with stimulant (stallion Sylekt): 69.38
- Progressive 3h with stimulant (stallion Sylekt): 69.06

Compound: CC(=O)C(=O)O [Pyruvate, NaPyruvate]
- Motility 3h: 65.1
- Progressive 3h: 62.29
- Motility 3h with stimulant (food coloring 1.5 μl/mL): 64.58
- Progressive 3h with stimulant (food coloring 1.5 μl/mL): 62.08
- Motility 3h with stimulant (food coloring 2 μl/mL): 65
- Progressive 3h with stimulant (food coloring 2 μl/mL): 60.83
- Motility 3h with stimulant (food coloring 2.5 μl/mL): 65.83
- Progressive 3h with stimulant (food coloring 2.5 μl/mL): 64.58
- Motility 3h with stimulant (food coloring 3 μl/mL): 65
- Progressive 3h with stimulant (food coloring 3 μl/mL): 61.67
- Motility 3h with stimulant (pH 7.1, stain time 30 min): 64.17
- Progressive 3h with stimulant (pH 7.1, stain time 30 min): 60.83
- Motility 3h with stimulant (pH 7.1, stain time 60 min): 67.5
- Progressive 3h with stimulant (pH 7.1, stain time 60 min): 66.67
- Motility 3h with stimulant (pH 7.9, stain time 30 min): 65
- Progressive 3h with stimulant (pH 7.9, stain time 30 min): 60
- Motility 3h with stimulant (pH 7.9, stain time 60 min): 64.17
- Progressive 3h with stimulant (pH 7.9, stain time 60 min): 62.5
- Motility 3h with stimulant (stain pH 7.1): 65.83
- Progressive 3h with stimulant (stain pH 7.1): 63.13
- Motility 3h with stimulant (stain pH 7.9): 64.38
- Progressive 3h with stimulant (stain pH 7.9): 61.46
- Motility 3h with stimulant [1]: 64.58
- Progressive 3h with stimulant [1]: 60.42
- Motility 3h with stimulant [2]: 65.83
- Progressive 3h with stimulant [2]: 64.58
- Motility 3h with stimulant (stallion Gunsmoke): 62.19
- Progressive 3h with stimulant (stallion Gunsmoke): 56.56
- Motility 3h with stimulant (stallion Rowdy): 67.19
- Progressive 3h with stimulant (stallion Rowdy): 67.19
- Motility 3h with stimulant (stallion Sylekt): 65.94
- Progressive 3h with stimulant (stallion Sylekt): 63.13
